molecular target: human TRPV3 receptors (Homo sapiens (Human), UniProt Q8NET8); assay: Calcium flux assay (FLIPR TETRA), inhibition of the 2-APB response; format: cell-based; details: recombinant HEK293 cells stably expressing TRPV3, Calcium-4 dye, 2-APB at its EC80
Description: (i) In Vitro Methods-Calcium Flux Assays:
Experiments were conducted using the FLIPR^TETRA®. On the day prior to the experiment, recombinant HEK293 cells that stably express human and mouse TRPV3 were removed from tissue culture flasks and plated in growth medium at 20,000 cells/well into black-walled clear-bottom 384-well Biocoat™ poly-D-lysine assay plates (BD Biosciences, Bedford, Mass.) using a Multidrop® dispenser (ThermoScientific, Waltham, Mass.). […] Cells were incubated for 90-120 minutes in the dark. Compounds were dissolved in DMSO to prepare a 10 mM stock solution. The intensity of the fluorescence was captured and digitally transferred to an interfaced PC. The peak increase in fluorescence over baseline (relative fluorescence units) was calculated and expressed as the percentage of the maximal 2-APB (2-aminoethoxyldiphenyl borate) response (in the absence of compound).

human TRPV3 receptors, sequence (Q8NET8 whole entry): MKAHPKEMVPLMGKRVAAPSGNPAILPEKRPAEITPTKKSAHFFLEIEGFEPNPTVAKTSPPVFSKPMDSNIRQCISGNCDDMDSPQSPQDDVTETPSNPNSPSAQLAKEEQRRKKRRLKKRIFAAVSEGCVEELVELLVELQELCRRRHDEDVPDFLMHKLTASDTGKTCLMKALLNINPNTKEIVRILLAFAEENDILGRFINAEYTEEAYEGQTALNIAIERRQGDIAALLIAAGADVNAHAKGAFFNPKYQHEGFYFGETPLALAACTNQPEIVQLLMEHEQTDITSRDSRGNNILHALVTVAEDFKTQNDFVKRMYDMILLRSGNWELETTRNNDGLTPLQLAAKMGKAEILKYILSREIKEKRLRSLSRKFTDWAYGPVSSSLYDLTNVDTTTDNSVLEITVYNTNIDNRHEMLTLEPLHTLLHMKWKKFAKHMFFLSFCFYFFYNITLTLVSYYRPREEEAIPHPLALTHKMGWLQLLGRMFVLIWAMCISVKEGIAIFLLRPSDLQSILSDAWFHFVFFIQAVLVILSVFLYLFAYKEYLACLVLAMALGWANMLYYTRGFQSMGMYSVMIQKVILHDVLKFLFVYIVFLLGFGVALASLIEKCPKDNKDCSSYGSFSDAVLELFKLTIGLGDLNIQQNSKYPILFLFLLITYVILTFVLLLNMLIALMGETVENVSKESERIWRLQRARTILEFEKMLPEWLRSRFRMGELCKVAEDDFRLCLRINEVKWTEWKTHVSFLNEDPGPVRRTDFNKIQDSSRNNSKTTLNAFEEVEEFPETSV

| Structure (SMILES) | IC50 |
| --- | --- |
| CC(C)[C@H](CO)NCc1nc(-c2ccc(C(F)(F)F)c(Cl)c2)ccc1F [Example 47, (2R)-2-[({6-[3-chloro-4-(trifluoromethyl)phenyl]-3-fluoropyridin-2-yl}methyl)amino]-3-methylbutan-1-ol] | 290 nM |
| CC(C)[C@H](CO)NCc1nc(-c2cccc(S(=O)(=O)N3CCCCC3)c2)ccc1F [Example 48, (2R)-2-[({3-fluoro-6-[3-(piperidin-1-ylsulfonyl)phenyl]pyridin-2-yl}methyl)amino]-3-methylbutan-1-ol] | 330 nM |
| CC(C)[C@H](CO)NCc1nc(-c2cccc(N3CCCC3)c2)ccc1F [Example 49, (2R)-2-[({3-fluoro-6-[3-(pyrrolidin-1-yl)phenyl]pyridin-2-yl}methyl)amino]-3-methylbutan-1-ol] | 480 nM |
| Cc1ccc(S(=O)(=O)N(C)C)cc1-c1ccc(F)c(CN[C@@H](CO)C(C)C)n1 [Example 50, 3-[5-fluoro-6-({[(2R)-1-hydroxy-3-methylbutan-2-yl]amino}methyl)pyridin-2-yl]-N,N,4-trimethylbenzenesulfonamide] | 1770 nM |
| CCN(CC)S(=O)(=O)c1cccc(-c2ccc(F)c(CN[C@@H](CO)C(C)C)n2)c1 [Example 51, N,N-diethyl-3-[5-fluoro-6-({[(2R)-1-hydroxy-3-methylbutan-2-yl]amino}methyl)pyridin-2-yl]benzenesulfonamide] | 500 nM |
| CC(C)[C@H](CO)NCc1nc(-c2cccc(C(=O)N(C)C3CCCCC3)c2)ccc1F [Example 52, N-cyclohexyl-3-[5-fluoro-6-({[(2R)-1-hydroxy-3-methylbutan-2-yl]amino}methyl)pyridin-2-yl]-N-methylbenzamide] | 1420 nM |
| CC(C)[C@H](CO)NCc1nc(-c2ccc(OCC(F)(F)F)cc2)ccc1F [Example 53, (2R)-2-[({3-fluoro-6-[4-(2,2,2-trifluoroethoxy)phenyl]pyridin-2-yl}methyl)amino]-3-methylbutan-1-ol] | 460 nM |
| CC(C)[C@H](CO)NCc1nc(-c2cccc(S(=O)(=O)N3CCOCC3)c2)ccc1F [Example 54, (2R)-2-[({3-fluoro-6-[3-(morpholin-4-ylsulfonyl)phenyl]pyridin-2-yl}methyl)amino]-3-methylbutan-1-ol] | 760 nM |
| CC(C)[C@H](CO)NCc1nc(-c2ccnc(N3CCOCC3)c2)ccc1F [Example 55, (2R)-2-({[5-fluoro-2′-(morpholin-4-yl)-2,4′-bipyridin-6-yl]methyl}amino)-3-methylbutan-1-ol] | 2160 nM |
| CC(C)[C@H](CO)NCc1nc(-c2cccc(C(=O)N(C(C)C)C(C)C)c2)ccc1F [Example 56, 3-[5-fluoro-6-({[(2R)-1-hydroxy-3-methylbutan-2-yl]amino}methyl)pyridin-2-yl]-N,N-diisopropylbenzamide] | 1780 nM |
| CC(C)Oc1ccc(-c2ccc(F)c(CN[C@@H](CO)C(C)C)n2)cn1 [Example 57, (2R)-2-({[5-fluoro-6′-(propan-2-yloxy)-2,3′-bipyridin-6-yl]methyl}amino)-3-methylbutan-1-ol] | 500 nM |
| CC(C)[C@H](CO)NCc1nc(-c2cccc(C(=O)N(C)Cc3ccccc3)c2)ccc1F [Example 58, N-benzyl-3-[5-fluoro-6-({[(2R)-1-hydroxy-3-methylbutan-2-yl]amino}methyl)pyridin-2-yl]-N-methylbenzamide] | 1490 nM |
| Cc1ccc(S(=O)(=O)C(F)(F)F)cc1-c1ccc(F)c(CN[C@@H](CO)C(C)C)n1 [Example 59, (2R)-2-{[(3-fluoro-6-{2-methyl-5-[(trifluoromethyl)sulfonyl]phenyl}pyridin-2-yl)methyl]amino}-3-methylbutan-1-ol] | 630 nM |
| CC(C)[C@H](CO)NCc1nc(-c2cccc(S(=O)(=O)N3CCCC3)c2)ccc1F [Example 60, (2R)-2-[({3-fluoro-6-[3-(pyrrolidin-1-ylsulfonyl)phenyl]pyridin-2-yl}methyl)amino]-3-methylbutan-1-ol] | 1080 nM |
| CC(C)[C@H](CO)NCc1nc(-c2cccc(S(=O)(=O)N(C)C(C)(C)C)c2)ccc1F [Example 61, N-tert-butyl-3-[5-fluoro-6-({[(2R)-1-hydroxy-3-methylbutan-2-yl]amino}methyl)pyridin-2-yl]-N-methylbenzenesulfonamide] | 190 nM |
| CC(C)[C@H](CO)NCc1nc(-c2cccc(C(=O)N3CCSCC3)c2)ccc1F [Example 62, {3-[5-fluoro-6-({[(2R)-1-hydroxy-3-methylbutan-2-yl]amino}methyl)pyridin-2-yl]phenyl}(thiomorpholin-4-yl)methanone] | 4000 nM |
| CC(C)[C@H](CO)NCc1nc(-c2cccc3c2ccn3C)ccc1F [Example 63, (2R)-2-({[3-fluoro-6-(1-methyl-1H-indol-4-yl)pyridin-2-yl]methyl}amino)-3-methylbutan-1-ol] | 1740 nM |
| CC(C)[C@H](CO)NCc1nc(-c2ccc3ccn(C)c3c2)ccc1F [Example 64, (2R)-2-({[3-fluoro-6-(1-methyl-1H-indol-6-yl)pyridin-2-yl]methyl}amino)-3-methylbutan-1-ol] | 480 nM |

| Structure (SMILES) | IC50 |
| --- | --- |
| CC(C)[C@H](CO)NCc1nc(N2CCCC(C(F)(F)F)C2)ccc1F (stereo partly drawn) [Example 65, (2R)-2-[({3-fluoro-6-[3-(trifluoromethyl)piperidin-1-yl]pyridin-2-yl}methyl)amino]-3-methylbutan-1-ol] | 320 nM |
| CC(C)[C@H](CO)NCc1nc(N2CCC(C(F)(F)F)CC2)ccc1F [Example 66, (2R)-2-[({3-fluoro-6-[4-(trifluoromethyl)piperidin-1-yl]pyridin-2-yl}methyl)amino]-3-methylbutan-1-ol] | 220 nM |
| CC(C)[C@H](CO)NCc1nc(N2CCC(C(F)(F)F)C2)ccc1F (stereo partly drawn) [Example 67, (2R)-2-[({3-fluoro-6-[3-(trifluoromethyl)pyrrolidin-1-yl]pyridin-2-yl}methyl)amino]-3-methylbutan-1-ol] | 420 nM |
| CC(C)[C@H](CO)NCc1nc(-c2ccc(OCC(F)(F)F)nc2)ccc1F [Example 68, (2R)-2-({[5-fluoro-6′-(2,2,2-trifluoroethoxy)-2,3′-bipyridin-6-yl]methyl}amino)-3-methylbutan-1-ol] | 590 nM |
| CC(C)[C@H](CO)NCc1cccc(-c2ccc(C(F)(F)F)nc2)n1 [Example 69, (2R)-3-methyl-2-({[6′-(trifluoromethyl)-2,3′-bipyridin-6-yl]methyl}amino)butan-1-ol] | 3720 nM |
| CC(C)[C@H](CO)NCc1nc(N2CCc3ccccc3C2)ccc1F [Example 70, (2R)-2-({[6-(3,4-dihydroisoquinolin-2(1H)-yl)-3-fluoropyridin-2-yl]methyl}amino)-3-methylbutan-1-ol] | 180 nM |
| CC(C)[C@H](CO)NCc1nc(N2Cc3ccccc3C2)ccc1F [Example 71, (2R)-2-({[6-[1,3-dihydro-2H-isoindol-2-yl)-3-fluoropyridin-2-yl]methyl}amino)-3-methylbutan-1-ol] | 160 nM |
| CC(C)[C@H](CO)NCc1nc(-c2ccc(C(F)(F)F)cn2)ccc1F [Example 73, (2R)-2-({[5-fluoro-5′-(trifluoromethyl)-2,2′-bipyridin-6-yl]methyl}amino)-3-methylbutan-1-ol] | 140 nM |
| COCC(CO)NCc1nc(-c2ccc(C(F)(F)F)cc2)ccc1F (stereo not drawn) [Example 74, 2-[({3-fluoro-6-[4-(trifluoromethyl)phenyl]pyridin-2-yl}methyl)amino]-3-methoxypropan-1-ol] | 3680 nM |
| OC[C@H](NCc1nc(-c2ccc(C(F)(F)F)nc2)ccc1F)C1CC1 [Example 75, (2R)-2-cyclopropyl-2-({[5-fluoro-6′-(trifluoromethyl)-2,3′-bipyridin-6-yl]methyl}amino)ethanol] | 3020 nM |
| OC[C@H](NCc1nc(-c2ccc(OCC(F)(F)F)nc2)ccc1F)C1CC1 [Example 76, (2R)-2-cyclopropyl-2-({[5-fluoro-6′-(2,2,2-trifluoroethoxy)-2,3′-bipyridin-6-yl]methyl}amino)ethanol] | 1600 nM |
| CC[C@H](CO)NCc1nc(-c2ccc(C(F)(F)F)cc2)ccc1F [Example 77, (2R)-2-[({3-fluoro-6-[4-(trifluoromethyl)phenyl]pyridin-2-yl}methyl)amino]butan-1-ol] | 540 nM |
| CC[C@H](CO)NCc1nc(-c2ccc(C(F)(F)F)nc2)ccc1F [Example 78, (2R)-2-({[5-fluoro-6′-(trifluoromethyl)-2,3′-bipyridin-6-yl]methyl}amino)butan-1-ol] | 10200 nM |
| OCC1(NCc2nc(-c3ccc(C(F)(F)F)cc3)ccc2F)CCC1 [Example 79, {1-[({3-fluoro-6-[4-(trifluoromethyl)phenyl]pyridin-2-yl}methyl)amino]cyclobutyl}methanol] | 700 nM |
| OCC1(NCc2nc(-c3ccc(C(F)(F)F)cc3)ccc2F)CCCC1 [Example 80, {1-[({3-fluoro-6-[4-(trifluoromethyl)phenyl]pyridin-2-yl}methyl)amino]cyclopentyl}methanol] | 290 nM |
| OCC1(NCc2nc(-c3ccc(C(F)(F)F)cc3)ccc2F)CCCCC1 [Example 81, {1-[({3-fluoro-6-[4-(trifluoromethyl)phenyl]pyridin-2-yl}methyl)amino]cyclohexyl}methanol] | 680 nM |
| C[C@H](CO)NCc1nc(-c2ccc(C(F)(F)F)cc2)ccc1F [Example 82, (2R)-2-[({3-fluoro-6-[4-(trifluoromethyl)phenyl]pyridin-2-yl}methyl)amino]propan-1-ol] | 1640 nM |
| CCC[C@H](CO)NCc1nc(-c2ccc(C(F)(F)F)cc2)ccc1F [Example 83, (2R)-2-[({3-fluoro-6-[4-(trifluoromethyl)phenyl]pyridin-2-yl}methyl)amino]pentan-1-ol] | 460 nM |
